{"source": "patent US11793222B2", "about": "“Solutions and dispersions of amide compounds” (Firmenich SA, priority 2016, dated 2023)", "key": {"trained panelists [1]": {"system": "trained panelists", "assay": "Evaluation of the umami effect in hot chicken bouillon by trained panelists", "assay_type": "in vivo", "details": "20 ppm compound or 40 ppm solid dispersion (50:50 w/w), 4 trained panelists, blind, after 5 minutes", "experimental": "(§1) The solutions were presented to 4 trained panelists on a blind test basis after 5 minutes. They were asked to rate the samples for the umami taste intensity from 0 to 10 (0 denoted no umami effect, and 10 denoted very strong umami taste). The sample according to the invention was rated higher in umami intensity (5.0) than the comparative sample (3.8).\nThe bouillons were presented to 4 trained panelists on a blind test basis after 5 minutes. The sample according to the invention was rated higher in umami intensity (6.5) than the comparative sample (5.5)."}, "trained panelists [2]": {"system": "trained panelists", "assay": "Evaluation of the umami effect in hot water by trained panelists", "assay_type": "in vivo", "details": "20 ppm compound or 40 ppm solid dispersion (50:50 w/w), 4 trained panelists, blind, after 5 minutes", "experimental": "as §1"}, "[3]": {"assay": "Dissolution kinetics in water at 60° C., followed by UV/Vis spectroscopy (absorbance at 310 nm)", "assay_type": "physicochemical", "experimental": "The dissolution process was followed on-line by monitoring the UV signal of dissolved (E)-3-(3,4-dimethoxyphenyl)-N-(4-methoxyphenethyl)acrylamide with UV/Vis spectroscopy (measuring absorbance at 310 nm). The dissolution process yielded 50% of the target concentration of 20 ppm of (E)-3-(3,4-dimethoxyphenyl)-N-(4-methoxyphenethyl)acrylamide (10 ppm) after 1.5 minutes, and 95% (19 ppm) after 17 minutes.\n20 mg of (E)-3-(3,4-dimethoxyphenyl)-N-(4-methoxyphenethyl)acrylamide were dispersed in 1 L of water at 60° C. The dissolution process yielded 50% of the target concentration of 20 ppm (10 ppm) after 78 minutes (factor 50 slower compared to example 1). 95% (19 ppm) of the target concentration could not be achieved after 6 hours. The concentration of dissolved (E)-3-(3,4-dimethoxyphenyl)-N-(4-methoxyphenethyl)acrylamide after 6 hours was 15 ppm (75% of target).\n1.8 g of (E)-3-(3,4-dimethoxyphenyl)-N-(4-methoxyphenethyl)acrylamide and 1.8 g betaine were mixed with 116 g of a mixture of ethanol and water (50:50 w/w). The dispersion was heated to 60° C. until complete dissolution of the solid material. The solution was kept at 60° C., spray dried, and a fine, white powder was obtained. […] The dissolution process yielded 50% of the target concentration of 20 ppm of (E)-3-(3,4-dimethoxyphenyl)-N-(4-methoxyphenethyl)acrylamide (10 ppm) after 2.5 minutes, and 95% (19 ppm) after 29 minutes."}, "trained panelists [4]": {"system": "trained panelists", "assay": "Evaluation of the umami effect in cold water by trained panelists", "assay_type": "in vivo", "details": "cold water (room temperature); 20 ppm compound or 40 ppm solid dispersion (50:50 w/w); 4 trained panelists, blind, after 5 minutes", "experimental": "as §1\nThe solutions were presented to 4 trained panelists on a blind test basis after 5 minutes. The sample according to the invention was rated higher in umami intensity (3.4) than the comparative sample (2.5)."}}}
{"smiles": "COc1ccc(CCNC(=O)/C=C/c2ccc(OC)c(OC)c2)cc1", "note": "[(E)-3-(3,4-dimethoxyphenyl)-N-(4-methoxyphenethyl)acrylamide]", "values": [{"measurement": "umami intensity rating", "setting": "trained panelists [1]", "result": 5.5}, {"measurement": "umami taste intensity rating from 0 to 10", "setting": "trained panelists [2]", "result": 3.8}, {"measurement": "time until 95% (19 ppm) of the target concentration (could not be achieved)", "setting": "[3]; 20 mg in 1 L of water at 60° C.", "result": "> 6", "unit": "h"}, {"measurement": "concentration of dissolved compound after 6 hours", "setting": "[3]; 20 mg in 1 L of water at 60° C., after 6 hours", "result": 15, "unit": "ppm"}, {"measurement": "dissolved compound after 6 hours as % of target", "setting": "[3]; 20 mg in 1 L of water at 60° C., after 6 hours, target 20 ppm", "result": 75, "unit": "%"}, {"measurement": "time until dissolution yielded 50% of the target concentration of 20 ppm (10 ppm)", "setting": "[3]; 1 L of water at 60° C., target 20 ppm of the amide", "result": 78, "unit": "min"}, {"measurement": "factor slower compared to example 1 (time to 50% of target concentration)", "setting": "[3]; water at 60° C.", "result": 50}, {"measurement": "umami intensity rating", "setting": "trained panelists [4]", "result": 2.5}]}
